Source: patent publication US10280139B2, “Cytotoxic peptides and conjugates thereof” (priority 2014, dated 2019)

Tests used:
Experiment in all cases: In vitro cell killing assay of compounds of Formula (I), Cell-Titer-Glo
Assay type in all cases: cell-based
NCI-H526 = details: Homo sapiens, NCI-H526, 120 h; free compound, five days incubation
Procedure: (§1) For evaluation of the cell killing potency of the compounds of Formula (I) in vitro, cell proliferation assays were performed in parallel with 8 cell lines: MDA-MB231 clone 16, clone 40, JimT1, HCC1954, NCl-H526, KU812, CMK11-5 cells and Jurkat cells. […] The cell proliferation assays were conducted with Cell-Titer-Glo™ (Promega) five days after cells were incubated with various concentrations of the compound (Riss et al., (2004) Assay Drug Dev Technol. 2:51-62).

KU812 = details: Homo sapiens, KU812, 120 h; free compound, five days incubation
Procedure: as §1

JimT1 = details: Homo sapiens, JIMT-1, 120 h; free compound, five days incubation
Procedure: as §1

MDA-MB231 clone 40 = details: Homo sapiens, MDA-MB-231, 120 h; free compound, five days incubation
Procedure: as §1

MDA-MB231 clone 16 = details: Homo sapiens, MDA-MB-231, 120 h; free compound, five days incubation
Procedure: as §1

HCC1954 = details: Homo sapiens, HCC1954, 120 h; free compound, five days incubation
Procedure: as §1

Jurkat cells = details: Homo sapiens, 120 h, free compound, five days incubation
Procedure: as §1

CMK11-5 cells = details: Homo sapiens, CMK-11-5, 120 h; free compound, five days incubation
Procedure: as §1

## CC[C@H](C)[C@@H]([C@@H](CC(=O)N1CCC[C@H]1[C@H](OC)[C@@H](C)C(=O)N[C@@H](Cc1ccccc1)C(=O)NS(=O)(=O)CCCN=[N+]=[N-])OC)N(C)C(=O)[C@@H](N=C(N(C)C)N(C)C)C(C)C [FP-3, (S)-2-((bis(dimethylamino)methylene)amino)-1-(((3R,4S,5S)-1-((S)-2-((1R,2R)-3-(((S)-N-1-(3-azidopropylsulfonamido)-1-oxo-3-phenylpropan-2-yl)amino)-1-methoxy-2-methyl-3-oxopropyl)pyrrolidin-1-yl)-3-methoxy-5-methyl-1-oxoheptan-4-yl)(methyl)amino)-3-methyl-1-oxobutane]
NCI-H526
  IC50: 22 nM
KU812
  IC50: 6.78 nM
JimT1
  IC50: 42.1 nM
MDA-MB231 clone 40
  IC50: 23.9 nM
MDA-MB231 clone 16
  IC50: 12.7 nM
HCC1954
  IC50: 10.8 nM
Jurkat cells
  IC50: 3.01 nM
CMK11-5 cells
  IC50: 14.7 nM

## CC[C@H](C)[C@@H]([C@@H](CC(=O)N1CCC[C@H]1[C@H](OC)[C@@H](C)C(=O)N[C@@H](Cc1ccccc1)C(=O)OC)OC)N(C)C(=O)[C@@H](NC(=O)N(C(C)C)C(C)C)C(C)C [FP-5, (S)-methyl-2-((2R,3R)-3-((S)-1-((3R,4S,5S)-4-((S)-2-(3,3-diisopropylureido)-N,3-dimethylbutanamido)-3-methoxy-5-methylheptanoyl)pyrrolidin-2-yl)-3-methoxy-2-methylpropanamido)-3-phenylpropanoate]
NCI-H526
  IC50: 204 nM
KU812
  IC50: 106 nM
JimT1
  IC50: 44.7 nM
MDA-MB231 clone 40
  IC50: 139 nM
MDA-MB231 clone 16
  IC50: 83.5 nM
HCC1954
  IC50: 47 nM
Jurkat cells
  IC50: 49.9 nM
CMK11-5 cells
  IC50: 74.8 nM

## CC[C@H](C)[C@@H]([C@@H](CC(=O)N1CCC[C@H]1[C@H](OC)[C@@H](C)C(=O)N[C@@H](Cc1ccccc1)C(=O)O)OC)N(C)C(=O)[C@@H](/N=C(\N(C)C)N(C)CCN(C)C(=O)CCCCCN1C(=O)C=CC1=O)C(C)C [NL-9, (S)-2-((2R,3R)-3-((S)-1-((3R,4S,7S,E)-4-((S)-sec-butyl)-9-(dimethylamino)-19-(2,5-dioxo-2,5-dihydro-1H-pyrrol-1-yl)-7-isopropyl-3-methoxy-5,10,13-trimethyl-6,14-dioxo-5,8,10,13-tetraazanonadec-8-en-1-oyl)pyrrolidin-2-yl)-3-methoxy-2-methylpropanamido)-3-phenylpropanoic acid]
NCI-H526
  IC50: 29.5 nM
KU812
  IC50: 8.4 nM
JimT1
  IC50: 14.2 nM
MDA-MB231 clone 40
  IC50: 11.7 nM
MDA-MB231 clone 16
  IC50: 8.1 nM
HCC1954
  IC50: 2.3 nM
Jurkat cells
  IC50: 6.1 nM
CMK11-5 cells
  IC50: 10.4 nM
